Experimental data from publication PMC11277489, “Novel Piperazine Derivatives of Vindoline as Anticancer Agents” (International Journal of Molecular Sciences, 2024).

What was measured:
[1] = system: MCF7; test: NCI60 one-dose screen (10 μM), Breast Cancer; assay type: cell-based; conditions: Homo sapiens, MCF7, read-out: Growth percent rate
[2] = system: NCI-H460; test: NCI60 one-dose screen (10 μM), Non-small Cell Lung Cancer; assay type: cell-based; conditions: Homo sapiens, NCI-H460, read-out: Growth percent rate
[3] = system: SW-620; test: NCI60 one-dose screen (10 μM), Colon Cancer; assay type: cell-based; conditions: Homo sapiens, SW-620, read-out: Growth percent rate
[4] = system: SN12C; test: NCI60 one-dose screen (10 μM), Renal Cancer; assay type: cell-based; conditions: Homo sapiens, read-out: Growth percent rate
[5] = system: CCRF-CEM; test: NCI60 one-dose screen (10 μM), Leukemia; assay type: cell-based; conditions: Homo sapiens, read-out: Growth percent rate
[6] = system: SK-MEL-5; test: NCI60 one-dose screen (10 μM), Melanoma; assay type: cell-based, human; conditions: Homo sapiens, SK-MEL-5, read-out: Growth percent rate
[7] = system: UACC-257; test: NCI60 one-dose screen (10 μM), Melanoma; assay type: cell-based; conditions: Homo sapiens, UACC-257, read-out: Growth percent rate
[8] = system: SF-268; test: NCI60 one-dose screen (10 μM), CNS Cancer; assay type: cell-based; conditions: Homo sapiens, SF-268, read-out: Growth percent rate
[9] = system: IGROV1; test: NCI60 one-dose screen (10 μM), Ovarian Cancer; assay type: cell-based; conditions: Homo sapiens, IGROV-1, read-out: Growth percent rate
[10] = system: SK-MEL-2; test: NCI60 one-dose screen (10 μM), Melanoma; assay type: cell-based; conditions: Homo sapiens, SK-MEL-2, read-out: Growth percent rate
[11] = system: OVCAR-4; test: NCI60 one-dose screen (10 μM), Ovarian Cancer; assay type: cell-based; conditions: Homo sapiens, OVCAR-4, read-out: Growth percent rate
[12] = system: KM12; test: NCI60 one-dose screen (10 μM), Colon Cancer; assay type: cell-based, human; conditions: Homo sapiens, KM12, read-out: Growth percent rate
[13] = system: K-562; test: NCI60 one-dose screen (10 μM), Leukemia; assay type: cell-based; conditions: Homo sapiens, K562, read-out: Growth percent rate
[14] = system: NCI-H322M; test: NCI60 one-dose screen (10 μM), Non-small Cell Lung Cancer; assay type: cell-based; conditions: Homo sapiens, read-out: Growth percent rate
[15] = system: SF-539; test: NCI60 one-dose screen (10 μM), CNS Cancer; assay type: cell-based, human; conditions: Homo sapiens, SF-539, read-out: Growth percent rate
[16] = system: MDA-MB-435; test: NCI60 one-dose screen (10 μM), Melanoma; assay type: cell-based; conditions: Homo sapiens, MDA-MB-435, read-out: Growth percent rate
[17] = system: EKVX; test: NCI60 one-dose screen (10 μM), Non-small Cell Lung Cancer; assay type: cell-based; conditions: Homo sapiens, read-out: Growth percent rate
[18] = system: MOLT-4; test: NCI60 one-dose screen (10 μM), Leukemia; assay type: cell-based, human; conditions: Homo sapiens, MOLT-4, read-out: Growth percent rate
[19] = system: HCT-116; test: NCI60 one-dose screen (10 μM), Colon Cancer; assay type: cell-based; conditions: Homo sapiens, HCT-116, read-out: Growth percent rate
[20] = system: NCI-H23; test: NCI60 one-dose screen (10 μM), Non-small Cell Lung Cancer; assay type: cell-based; conditions: Homo sapiens, NCI-H23, read-out: Growth percent rate
[21] = system: CAKI-1; test: NCI60 one-dose screen (10 μM), Renal Cancer; assay type: cell-based; conditions: Homo sapiens, CAKI-1, read-out: Growth percent rate
[22] = system: OVCAR-8; test: NCI60 one-dose screen (10 μM), Ovarian Cancer; assay type: cell-based; conditions: Homo sapiens, OVCAR-8, read-out: Growth percent rate
[23] = system: A549/ATCC; test: NCI60 one-dose screen (10 μM), Non-small Cell Lung Cancer; assay type: cell-based; conditions: Homo sapiens, A549, read-out: Growth percent rate
[24] = system: MALME-3M; test: NCI60 one-dose screen (10 μM), Melanoma; assay type: cell-based; conditions: Homo sapiens, Malme-3M, read-out: Growth percent rate
[25] = system: NCI-H522; test: NCI60 one-dose screen (10 μM), Non-small Cell Lung Cancer; assay type: cell-based; conditions: Homo sapiens, NCI-H522, read-out: Growth percent rate
[26] = system: LOX IMVI; test: NCI60 one-dose screen (10 μM), Melanoma; assay type: cell-based, human; conditions: Homo sapiens, LOX IMVI, read-out: Growth percent rate
[27] = system: RXF 393; test: NCI60 one-dose screen (10 μM), Renal Cancer; assay type: cell-based, human; conditions: Homo sapiens, RXF 393, read-out: Growth percent rate
[28] = system: DU-145; test: NCI60 one-dose screen (10 μM), Prostate Cancer; assay type: cell-based; conditions: Homo sapiens, DU-145, read-out: Growth percent rate
[29] = system: SNB-19; test: NCI60 one-dose screen (10 μM), CNS Cancer; assay type: cell-based; conditions: Homo sapiens, SNB-19, read-out: Growth percent rate
[30] = system: SNB-75; test: NCI60 one-dose screen (10 μM), CNS Cancer; assay type: cell-based, human; conditions: Homo sapiens, SNB-75, read-out: Growth percent rate
[31] = system: 786–0; test: NCI60 one-dose screen (10 μM), Renal Cancer; assay type: cell-based; conditions: Homo sapiens, 786-0, read-out: Growth percent rate
[32] = system: ACHN; test: NCI60 one-dose screen (10 μM), Renal Cancer; assay type: cell-based; conditions: Homo sapiens, read-out: Growth percent rate
[33] = system: HT29; test: NCI60 one-dose screen (10 μM), Colon Cancer; assay type: cell-based; conditions: Homo sapiens, HT-29, read-out: Growth percent rate
[34] = system: HL-60(TB); test: NCI60 one-dose screen (10 μM), Leukemia; assay type: cell-based; conditions: Homo sapiens, HL-60, read-out: Growth percent rate
[35] = system: COLO 205; test: NCI60 one-dose screen (10 μM), Colon Cancer; assay type: cell-based, human; conditions: Homo sapiens, COLO 205, read-out: Growth percent rate
[36] = system: SF-295; test: NCI60 one-dose screen (10 μM), CNS Cancer; assay type: cell-based; conditions: Homo sapiens, SF-295, read-out: Growth percent rate
[37] = system: M14; test: NCI60 one-dose screen (10 μM), Melanoma; assay type: cell-based; conditions: Homo sapiens, M14, read-out: Growth percent rate
[38] = system: OVCAR-3; test: NCI60 one-dose screen (10 μM), Ovarian Cancer; assay type: cell-based; conditions: Homo sapiens, OVCAR-3, read-out: Growth percent rate
[39] = system: HCT-15; test: NCI60 one-dose screen (10 μM), Colon Cancer; assay type: cell-based; conditions: Homo sapiens, HCT-15, read-out: Growth percent rate
[40] = system: SK-MEL-28; test: NCI60 one-dose screen (10 μM), Melanoma; assay type: cell-based; conditions: Homo sapiens, SK-MEL-28, read-out: Growth percent rate
[41] = system: HCC-2998; test: NCI60 one-dose screen (10 μM), Colon Cancer; assay type: cell-based; conditions: Homo sapiens, HCC 2998, read-out: Growth percent rate
[42] = system: 60 human tumor cell lines (NCI60); test: NCI60 one-dose screen (10 μM), whole panel; assay type: cell-based; conditions: Homo sapiens, read-out: Growth percent rate, Mean

Structure (SMILES): CCC12C=CCN3CCC4(c5cc(NC(=O)CN6CCN(Cc7ccc(F)cc7)CC6)c(OC)cc5N(C)C4C(O)(C(=O)OC)C1OC(C)=O)C32 (stereo not drawn) [Compound 19]
- activity at 10 µM [1]: 80%
- activity at 10 µM [2]: 129%
- activity at 10 µM [3]: 118%
- activity at 10 µM [4]: 103%
- activity at 10 µM [5]: 105%
- activity at 10 µM [6]: 92.8%
- activity at 10 µM [7]: 98.4%
- activity at 10 µM [8]: 102%
- activity at 10 µM [9]: 113%
- activity at 10 µM [10]: 103%
- activity at 10 µM [11]: 102%
- activity at 10 µM [12]: 115%
- activity at 10 µM [13]: 74%
- activity at 10 µM [14]: 98.5%
- activity at 10 µM [15]: 102%
- activity at 10 µM [16]: 103%
- activity at 10 µM [17]: 88.8%
- activity at 10 µM [18]: 78%
- activity at 10 µM [19]: 101%
- activity at 10 µM [20]: 103%
- activity at 10 µM [21]: 69.3%
- activity at 10 µM [22]: 100%
- activity at 10 µM [23]: 89%
- activity at 10 µM [24]: 102%
- activity at 10 µM [25]: 93.5%
- activity at 10 µM [26]: 99.1%
- activity at 10 µM [27]: 90.4%
- activity at 10 µM [28]: 111%
- activity at 10 µM [29]: 97.2%
- activity at 10 µM [30]: 87.3%
- activity at 10 µM [31]: 92.8%
- activity at 10 µM [32]: 102%
- activity at 10 µM [33]: 108%
- activity at 10 µM [34]: 101%
- activity at 10 µM [35]: 101%
- activity at 10 µM [36]: 99.8%
- activity at 10 µM [37]: 102%
- activity at 10 µM [38]: 119%
- activity at 10 µM [39]: 95%
- activity at 10 µM [40]: 109%
- activity at 10 µM [41]: 102%
- activity at 10 µM [42]: 99.6%
